This note sets out measurements from article PMC5384650 (Molecular microbiology, 2016).

This experiment concerns the target T1, threonine dehydratase (IlvA) (Salmonella enterica, UniProt P20506).
T1 sequence (P20506 1-514): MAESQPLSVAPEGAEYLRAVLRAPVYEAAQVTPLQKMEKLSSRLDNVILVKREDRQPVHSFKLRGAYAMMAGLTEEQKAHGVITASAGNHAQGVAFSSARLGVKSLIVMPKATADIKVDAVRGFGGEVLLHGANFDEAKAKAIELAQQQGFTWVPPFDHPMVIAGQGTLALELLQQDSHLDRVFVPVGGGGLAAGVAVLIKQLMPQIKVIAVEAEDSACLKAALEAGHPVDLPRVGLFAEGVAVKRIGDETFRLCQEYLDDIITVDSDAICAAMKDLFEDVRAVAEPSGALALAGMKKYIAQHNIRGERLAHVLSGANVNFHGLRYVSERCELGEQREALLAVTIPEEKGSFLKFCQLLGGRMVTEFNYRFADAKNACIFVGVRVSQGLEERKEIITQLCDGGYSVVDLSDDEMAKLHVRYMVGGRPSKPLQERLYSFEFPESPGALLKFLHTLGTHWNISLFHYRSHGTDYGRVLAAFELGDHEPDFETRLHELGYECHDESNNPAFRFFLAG
The experiment is classed as biochemical.

As usually defined, the Ki is the equilibrium dissociation constant of an inhibitor or competing ligand from its target. A higher Ki goes with lower affinity. For `NC[C@H](N)C(=O)O` [Dap, L-2,3-diaminopropionate], the Ki turned out to be 1700 µM.
